How the values were obtained:
[1] = tested on: patients aged 40-80 years with moderate to severe COPD; test: Clinical studies, ensifentrine vs placebo: COPD symptom responders (E-RS −2 units or TDI +1 unit) in patients with low FEV1 response; type: in vivo; details: for Ensifentrine vs. Placebo Odds Ratio, E-RS (−2 Unit) or TDI (+1 Unit) Responders / Odds in favor of a response, E-RS (−2 Unit) or TDI (+1 Unit) Responders / Ensifentrine vs. Placebo Odds Ratio, TDI (+1 Unit) or E-RS (−2 Unit) Responders / Odds in favor of a response, TDI (+1 Unit) or E-RS (−2 Unit) Responders: logistic regression; for Ensifentrine vs. Placebo Odds Ratio, E-RS (−2 Unit) or TDI (+1 Unit) Responders / Odds in favor of a response, E-RS (−2 Unit) or TDI (+1 Unit) Responders / % E-RS (−2 Unit) or TDI (+1 Unit) Responders / % responders, E-RS (−2 Units) or TDI (+1 Unit) Responders / Ensifentrine v placebo Odds Ratio, E-RS (−2 Units) or TDI (+1 Unit) Responders / Odds in favour of response, E-RS (−2 Units) or TDI (+1 Unit) Responders / Ensifentrine vs. Placebo Odds Ratio, TDI (+1 Unit) or E-RS (−2 Unit) Responders / Odds in favor of a response, TDI (+1 Unit) or E-RS (−2 Unit) Responders / % TDI (+1 Unit) or E-RS (−2 Unit) Responders: pooled mITT; for % E-RS (−2 Unit) or TDI (+1 Unit) Responders / % responders, E-RS (−2 Units) or TDI (+1 Unit) Responders / % TDI (+1 Unit) or E-RS (−2 Unit) Responders: 3 mg BID nebuliser; for % responders, E-RS (−2 Units) or TDI (+1 Unit) Responders / Ensifentrine v placebo Odds Ratio, E-RS (−2 Units) or TDI (+1 Unit) Responders / Odds in favour of response, E-RS (−2 Units) or TDI (+1 Unit) Responders: improvement in morning trough FEV1 less than 40 mL (table line prints <60 mL); for proportion of patients with a clinically important improvement in symptoms: over 24 weeks
Method: (§1) Clinical studies were conducted to determine the efficacy of ensifentrine in treating COPD compared with placebo. Ensifentrine was administered by nebuliser at a dose of 3 mg twice daily (BID) for 24 weeks. The studies were multi-centre, randomized, double-blind, parallel-group, placebo-controlled trials.
(§2) The study population included patients aged 40-80 years with moderate to severe COPD (FEV1 30%-70% p.n., FEV1/forced vital capacity (FVC) ratio<0.7, with mMRC≥2). The randomization stratified (a) the use of stable background maintenance LAMA or LABA therapy use (approx. 50%. yes or no) and (b) cigarette smoking (current or former). Inhaled corticosteroid (ICS) maintenance therapy was permitted in up to 20% of patients under certain provisions.
(§3) The primary endpoint was change from baseline in average FEV1 area under the curve AUC0-12h post-dose at week 12. Also assessed were COPD symptoms and quality of life (QoL) in patients showing lower responses in terms of lung function, and in particular patients with: (i) improvement in average FEV1 AUC0-12h of less than 100 mL and (ii) improvement in morning trough FEV1 of less than 100 mL, less than 60 mL or less than 40 mL.
(§4) COPD symptoms were assessed using Evaluating Respiratory Symptoms (E-RS; EXACT-Respiratory Symptoms, The minimal clinically important difference (MCID) of the E-RS is a total score of −2 units. User Manual (Version 3.0), October 2014) and Transitional Dyspnea Index (TDI; Mahler et al, The MCID of the transition dyspnea index is a total score of one unit. COPD 2005, 2:99-103.) and QoL was assessed using the St. George's Respiratory Questionnaire (SGRQ; Jones, St. George's Respiratory Questionnaire: The MCID of the SGRQ is a total score of −4 units. COPD 2005, 2:75-79.).

[2] = tested on: patients aged 40-80 years with moderate to severe COPD; test: Clinical studies, ensifentrine vs placebo: quality of life responders (SGRQ −4 units) in patients with low FEV1 response; type: in vivo
Method: as §1, §2, §3, §4

[3] = FEV1 AUC0-12h <100 mL or morning trough FEV1 <100, <60 or <40 mL, overall conclusion
[4] = average FEV1 AUC0-12h <100 mL at Week 12, Week 6
[5] = average FEV1 AUC0-12h <100 mL at Week 12, Week 12
[6] = average FEV1 AUC0-12h <100 mL at Week 12, Week 24
[7] = morning trough FEV1 <60 mL at Week 6, Week 6
[8] = morning trough FEV1 <60 mL at Week 12, Week 12
[9] = morning trough FEV1 <60 mL at Week 24, Week 24
[10] = morning trough FEV1 <100 mL at Week 6, Week 6
[11] = morning trough FEV1 <100 mL at Week 12, Week 12
[12] = morning trough FEV1 <100 mL at Week 24, Week 24

COc1cc2c(cc1OC)-c1c/c(=N\c3c(C)cc(C)cc3C)n(CCNC(N)=O)c(=O)n1CC2 [Ensifentrine, N-(2-{(2E)-9,10-dimethoxy-4-oxo-2-[(2,4,6-trimethylphenyl)imino]-6,7-dihydro-2H-pyrimido[6,1-a]isoquinolin-3(4H)-yl}ethyl)urea]
subjects achieving symptom MCID [1, 3]: approximately 70% | Ensifentrine vs. Placebo Odds Ratio, E-RS (−2 Unit) or TDI (+1 Unit) Responders [1, 4]: 1.42 | Odds in favor of a response, E-RS (−2 Unit) or TDI (+1 Unit) Responders [1, 4]: 1.69 | Ensifentrine vs. Placebo Odds Ratio, E-RS (−2 Unit) or TDI (+1 Unit) Responders [1, 5]: 1.63 | Odds in favor of a response, E-RS (−2 Unit) or TDI (+1 Unit) Responders [1, 5]: 2.69 | Ensifentrine vs. Placebo Odds Ratio, E-RS (−2 Unit) or TDI (+1 Unit) Responders [1, 6]: 1.38 | Odds in favor of a response, E-RS (−2 Unit) or TDI (+1 Unit) Responders [1, 6]: 2.91 | % E-RS (−2 Unit) or TDI (+1 Unit) Responders ([1]; average FEV1 AUC0-12h <100 mL at Week 12, responders at Week 6): 66.3% | % E-RS (−2 Unit) or TDI (+1 Unit) Responders ([1]; average FEV1 AUC0-12h <100 mL at Week 12, responders at Week 12): 71.2% | % E-RS (−2 Unit) or TDI (+1 Unit) Responders ([1]; average FEV1 AUC0-12h <100 mL at Week 12, responders at Week 24): 72.7% | % responders, E-RS (−2 Units) or TDI (+1 Unit) Responders ([1]; Week 6): 67.1% | Ensifentrine v placebo Odds Ratio, E-RS (−2 Units) or TDI (+1 Unit) Responders ([1]; Week 6): 1.468 | Odds in favour of response, E-RS (−2 Units) or TDI (+1 Unit) Responders ([1]; Week 6): 1.453 | % responders, E-RS (−2 Units) or TDI (+1 Unit) Responders ([1]; Week 12): 70.4% | Ensifentrine v placebo Odds Ratio, E-RS (−2 Units) or TDI (+1 Unit) Responders ([1]; Week 12): 1.433 | Odds in favour of response, E-RS (−2 Units) or TDI (+1 Unit) Responders ([1]; Week 12): 2.338 | % responders, E-RS (−2 Units) or TDI (+1 Unit) Responders ([1]; Week 24): 73.0% | Ensifentrine v placebo Odds Ratio, E-RS (−2 Units) or TDI (+1 Unit) Responders ([1]; Week 24): 1.370 | Odds in favour of response, E-RS (−2 Units) or TDI (+1 Unit) Responders ([1]; Week 24): 3.238 | proportion of patients with a clinically important improvement in symptoms ([1]; increase in average FEV1 AUC0-12h less than 100 mL at Week 12): at least ⅔ | proportion of patients with a clinically important improvement in symptoms ([1]; increase in morning trough FEV1 less than 100 mL at Week 12): at least ⅔ | Ensifentrine vs. Placebo Odds Ratio, TDI (+1 Unit) or E-RS (−2 Unit) Responders [1, 7]: 1.42 | Odds in favor of a response, TDI (+1 Unit) or E-RS (−2 Unit) Responders [1, 7]: 1.35 | % TDI (+1 Unit) or E-RS (−2 Unit) Responders ([1]; morning trough FEV1 <60 mL at Week 6, responders at Week 6): 65.3% | Ensifentrine vs. Placebo Odds Ratio, TDI (+1 Unit) or E-RS (−2 Unit) Responders [1, 8]: 1.59 | Odds in favor of a response, TDI (+1 Unit) or E-RS (−2 Unit) Responders [1, 8]: 2.83 | % TDI (+1 Unit) or E-RS (−2 Unit) Responders ([1]; morning trough FEV1 <60 mL at Week 12, responders at Week 12): 71.3% | Ensifentrine vs. Placebo Odds Ratio, TDI (+1 Unit) or E-RS (−2 Unit) Responders [1, 9]: 1.36 | Odds in favor of a response, TDI (+1 Unit) or E-RS (−2 Unit) Responders [1, 9]: 2.74 | % TDI (+1 Unit) or E-RS (−2 Unit) Responders ([1]; morning trough FEV1 <60 mL at Week 24, responders at Week 24): 71.7% | Ensifentrine vs. Placebo Odds Ratio, E-RS (−2 Unit) or TDI (+1 Unit) Responders [1, 10]: 1.43 | Odds in favor of a response, E-RS (−2 Unit) or TDI (+1 Unit) Responders [1, 10]: 1.47 | % E-RS (−2 Unit) or TDI (+1 Unit) Responders ([1]; morning trough FEV1 <100 mL at Week 6, responders at Week 6): 66.1% | Ensifentrine vs. Placebo Odds Ratio, E-RS (−2 Unit) or TDI (+1 Unit) Responders [1, 11]: 1.73 | Odds in favor of a response, E-RS (−2 Unit) or TDI (+1 Unit) Responders [1, 11]: 2.96 | % E-RS (−2 Unit) or TDI (+1 Unit) Responders ([1]; morning trough FEV1 <100 mL at Week 12, responders at Week 12): 71.9% | Ensifentrine vs. Placebo Odds Ratio, E-RS (−2 Unit) or TDI (+1 Unit) Responders [1, 12]: 1.42 | Odds in favor of a response, E-RS (−2 Unit) or TDI (+1 Unit) Responders [1, 12]: 2.75 | % E-RS (−2 Unit) or TDI (+1 Unit) Responders ([1]; morning trough FEV1 <100 mL at Week 24, responders at Week 24): 72.0% | subjects achieving QoL MCID [2, 3]: ~50% | Ensifentrine vs. Placebo Odds Ratio, SGRQ (−4 Unit) Responders ([2]; average FEV1 AUC0-12h <100 mL at Week 12, Week 6, logistic regression, pooled mITT): 1.32
